The source made the active and inactive calls. How the calls were made is not given here.
Test system: CCRIS mutagenicity, Ames/micronucleus/aberration tests
Experiment: CCRIS mutagenicity studies
[1] = Test System: AMES SALMONELLA TYPHIMURIUM, Strain/Indicator: TA98, Metabolic Activation: NONE, Method: STANDARD PLATE
[2] = Test System: AMES SALMONELLA TYPHIMURIUM, Strain/Indicator: TA100, Metabolic Activation: NONE, Method: STANDARD PLATE
[3] = Test System: AMES SALMONELLA TYPHIMURIUM, Strain/Indicator: TA98, Metabolic Activation: NONE, Method: PREINCUBATION
[4] = Test System: AMES SALMONELLA TYPHIMURIUM, Strain/Indicator: TA100, Metabolic Activation: NONE, Method: PREINCUBATION

Nc1ncc([N+](=O)[O-])s1
mutagenic call (Test System: AMES SALMONELLA TYPHIMURIUM, Strain/Indicator: TA98, Metabolic Activation: HAMSTER, LIVER, S-9, AROCLOR 1254, Method: STANDARD PLATE): inactive; negative
mutagenic call (Test System: AMES SALMONELLA TYPHIMURIUM, Strain/Indicator: TA98, Metabolic Activation: HAMSTER, LIVER, S-9, Method: STANDARD PLATE): inactive; negative
mutagenic call (Test System: AMES SALMONELLA TYPHIMURIUM, Strain/Indicator: TA98, Metabolic Activation: MOUSE, LIVER, S-9, AROCLOR 1254, Method: STANDARD PLATE): inactive; negative
mutagenic call (Test System: AMES SALMONELLA TYPHIMURIUM, Strain/Indicator: TA98, Metabolic Activation: MOUSE, LIVER, S-9, Method: STANDARD PLATE): inactive; negative
mutagenic call [1]: inactive; negative
mutagenic call (Test System: AMES SALMONELLA TYPHIMURIUM, Strain/Indicator: TA98, Metabolic Activation: RAT, LIVER, S-9, AROCLOR 1254, Method: STANDARD PLATE): inactive; negative
mutagenic call (Test System: AMES SALMONELLA TYPHIMURIUM, Strain/Indicator: TA98, Metabolic Activation: RAT, LIVER, S-9, Method: STANDARD PLATE): inactive; negative
mutagenic call (Test System: AMES SALMONELLA TYPHIMURIUM, Strain/Indicator: TA100, Metabolic Activation: HAMSTER, LIVER, S-9, AROCLOR 1254, Method: STANDARD PLATE): inactive; negative
mutagenic call [2]: inactive; negative
mutagenic call (Test System: AMES SALMONELLA TYPHIMURIUM, Strain/Indicator: TA1535, Metabolic Activation: HAMSTER, LIVER, S-9, AROCLOR 1254, Method: STANDARD PLATE): inactive; negative
mutagenic call (Test System: AMES SALMONELLA TYPHIMURIUM, Strain/Indicator: TA1535, Metabolic Activation: HAMSTER, LIVER, S-9, Method: STANDARD PLATE): inactive; negative
mutagenic call (Test System: AMES SALMONELLA TYPHIMURIUM, Strain/Indicator: TA1535, Metabolic Activation: MOUSE, LIVER, S-9, AROCLOR 1254, Method: STANDARD PLATE): inactive; negative
mutagenic call (Test System: AMES SALMONELLA TYPHIMURIUM, Strain/Indicator: TA1535, Metabolic Activation: MOUSE, LIVER, S-9, Method: STANDARD PLATE): inactive; negative
mutagenic call (Test System: AMES SALMONELLA TYPHIMURIUM, Strain/Indicator: TA1535, Metabolic Activation: NONE, Method: STANDARD PLATE): inactive; negative
mutagenic call (Test System: AMES SALMONELLA TYPHIMURIUM, Strain/Indicator: TA1535, Metabolic Activation: RAT, LIVER, S-9, AROCLOR 1254, Method: STANDARD PLATE): inactive; negative
mutagenic call (Test System: AMES SALMONELLA TYPHIMURIUM, Strain/Indicator: TA1535, Metabolic Activation: RAT, LIVER, S-9, Method: STANDARD PLATE): inactive; negative
mutagenic call (Test System: AMES SALMONELLA TYPHIMURIUM, Strain/Indicator: TA1537, Metabolic Activation: HAMSTER, LIVER, S-9, AROCLOR 1254, Method: STANDARD PLATE): inactive; negative
mutagenic call (Test System: AMES SALMONELLA TYPHIMURIUM, Strain/Indicator: TA1537, Metabolic Activation: HAMSTER, LIVER, S-9, Method: STANDARD PLATE): inactive; negative
mutagenic call (Test System: AMES SALMONELLA TYPHIMURIUM, Strain/Indicator: TA1537, Metabolic Activation: MOUSE, LIVER, S-9, AROCLOR 1254, Method: STANDARD PLATE): inactive; negative
mutagenic call (Test System: AMES SALMONELLA TYPHIMURIUM, Strain/Indicator: TA1537, Metabolic Activation: MOUSE, LIVER, S-9, Method: STANDARD PLATE): inactive; negative
mutagenic call (Test System: AMES SALMONELLA TYPHIMURIUM, Strain/Indicator: TA1537, Metabolic Activation: NONE, Method: STANDARD PLATE): inactive; negative
mutagenic call (Test System: AMES SALMONELLA TYPHIMURIUM, Strain/Indicator: TA1537, Metabolic Activation: RAT, LIVER, S-9, AROCLOR 1254, Method: STANDARD PLATE): inactive; negative
mutagenic call (Test System: AMES SALMONELLA TYPHIMURIUM, Strain/Indicator: TA1537, Metabolic Activation: RAT, LIVER, S-9, Method: STANDARD PLATE): inactive; negative
mutagenic call (Test System: AMES SALMONELLA TYPHIMURIUM, Strain/Indicator: TA1538, Metabolic Activation: HAMSTER, LIVER, S-9, AROCLOR 1254, Method: STANDARD PLATE): inactive; negative
mutagenic call (Test System: AMES SALMONELLA TYPHIMURIUM, Strain/Indicator: TA1538, Metabolic Activation: HAMSTER, LIVER, S-9, Method: STANDARD PLATE): inactive; negative
mutagenic call (Test System: AMES SALMONELLA TYPHIMURIUM, Strain/Indicator: TA1538, Metabolic Activation: MOUSE, LIVER, S-9, AROCLOR 1254, Method: STANDARD PLATE): inactive; negative
mutagenic call (Test System: AMES SALMONELLA TYPHIMURIUM, Strain/Indicator: TA1538, Metabolic Activation: MOUSE, LIVER, S-9, Method: STANDARD PLATE): inactive; negative
mutagenic call (Test System: AMES SALMONELLA TYPHIMURIUM, Strain/Indicator: TA1538, Metabolic Activation: NONE, Method: STANDARD PLATE): inactive; negative
mutagenic call (Test System: AMES SALMONELLA TYPHIMURIUM, Strain/Indicator: TA1538, Metabolic Activation: RAT, LIVER, S-9, AROCLOR 1254, Method: STANDARD PLATE): inactive; negative
mutagenic call (Test System: AMES SALMONELLA TYPHIMURIUM, Strain/Indicator: TA1538, Metabolic Activation: RAT, LIVER, S-9, Method: STANDARD PLATE): inactive; negative
mutagenic call (Test System: E. COLI, Strain/Indicator: WP2 UVRA, Metabolic Activation: HAMSTER, LIVER, S-9, AROCLOR 1254, Method: STANDARD PLATE): inactive; negative
mutagenic call (Test System: E. COLI, Strain/Indicator: WP2 UVRA, Metabolic Activation: HAMSTER, LIVER, S-9, Method: STANDARD PLATE): inactive; negative
mutagenic call (Test System: E. COLI, Strain/Indicator: WP2 UVRA, Metabolic Activation: MOUSE, LIVER, S-9, AROCLOR 1254, Method: STANDARD PLATE): inactive; negative
mutagenic call (Test System: E. COLI, Strain/Indicator: WP2 UVRA, Metabolic Activation: MOUSE, LIVER, S-9, Method: STANDARD PLATE): inactive; negative
mutagenic call (Test System: E. COLI, Strain/Indicator: WP2 UVRA, Metabolic Activation: NONE, Method: STANDARD PLATE): inactive; negative
mutagenic call (Test System: E. COLI, Strain/Indicator: WP2 UVRA, Metabolic Activation: RAT, LIVER, S-9, AROCLOR 1254, Method: STANDARD PLATE): inactive; negative
mutagenic call (Test System: E. COLI, Strain/Indicator: WP2 UVRA, Metabolic Activation: RAT, LIVER, S-9, Method: STANDARD PLATE): inactive; negative
mutagenic call (Test System: MOUSE LYMPHOMA, Strain/Indicator: L5178Y (TK+/TK-), Metabolic Activation: NONE, Method: SUSPENSION/PLATE): active; positive
mutagenic call (Test System: MOUSE LYMPHOMA, Strain/Indicator: L5178Y (TK+/TK-), Metabolic Activation: RAT, LIVER, S-9, AROCLOR 1254, Method: SUSPENSION/PLATE): active; positive

O=[N+]([O-])c1c2ccccc2cc2c1ccc1ccccc12
mutagenic call [1]: inactive; negative
mutagenic call [2]: inactive; negative

O=[N+]([O-])c1cccc(S(=O)(=O)O)c1
mutagenic call [3]: inactive; negative
mutagenic call (Test System: AMES SALMONELLA TYPHIMURIUM, Strain/Indicator: TA98, Metabolic Activation: RAT, LIVER, S-9, KANECHLOR 500, Method: PREINCUBATION): inactive; negative
mutagenic call [4]: inactive; negative
mutagenic call (Test System: AMES SALMONELLA TYPHIMURIUM, Strain/Indicator: TA100, Metabolic Activation: RAT, LIVER, S-9, KANECHLOR 500, Method: PREINCUBATION): inactive; negative

CCOc1ccc2ccccc2c1
mutagenic call [3]: inactive; negative
mutagenic call (Test System: AMES SALMONELLA TYPHIMURIUM, Strain/Indicator: TA98, Metabolic Activation: RAT LIVER S-9, PHENOBARBITAL AND BETA-NAPHTHOFLAVONE, Method: PREINCUBATION): inactive; negative
mutagenic call [4]: inactive; negative
mutagenic call (Test System: AMES SALMONELLA TYPHIMURIUM, Strain/Indicator: TA100, Metabolic Activation: RAT LIVER S-9, PHENOBARBITAL AND BETA-NAPHTHOFLAVONE, Method: PREINCUBATION): inactive; negative
mutagenic call (Test System: AMES SALMONELLA TYPHIMURIUM, Strain/Indicator: TA1535, Metabolic Activation: NONE, Method: PREINCUBATION): inactive; negative
mutagenic call (Test System: AMES SALMONELLA TYPHIMURIUM, Strain/Indicator: TA1535, Metabolic Activation: RAT LIVER S-9, PHENOBARBITAL AND BETA-NAPHTHOFLAVONE, Method: PREINCUBATION): inactive; negative
mutagenic call (Test System: AMES SALMONELLA TYPHIMURIUM, Strain/Indicator: TA1537, Metabolic Activation: NONE, Method: PREINCUBATION): inactive; negative
mutagenic call (Test System: AMES SALMONELLA TYPHIMURIUM, Strain/Indicator: TA1537, Metabolic Activation: RAT LIVER S-9, PHENOBARBITAL AND BETA-NAPHTHOFLAVONE, Method: PREINCUBATION): inactive; negative
mutagenic call (Test System: E.COLI, Strain/Indicator: WP2UVRA/PKM101, Metabolic Activation: NONE, Method: PREINCUBATION): inactive; negative
mutagenic call (Test System: E.COLI, Strain/Indicator: WP2UVRA/PKM101, Metabolic Activation: RAT LIVER S-9, PHENOBARBITAL AND BETA-NAPHTHOFLAVONE, Method: PREINCUBATION): inactive; negative

— PubChem BioAssay AID1259407 (Chemical Carcinogenesis Research Information System (CCRIS), 2018)
